Here are results for 24 compounds from patent publication US10865208B2, “ATG7 inhibitors and the uses thereof” (Millennium Pharmaceuticals, Inc., priority 2016, dated 2020).

Some results are limits rather than exact numbers.

The test concerns the target recombinant human His-ATG7 enzyme (Homo sapiens (Human), UniProt O95352). The experiment in a line: ATG7 Enzyme Assay (HTRF/FRET, ATG3-GST and Flag-Gabarap). Type of test: biochemical. To be noted: for inhibition at 0.111 µM: Concentration 0.111 μM, read-out: Percent Inhibition. The method, boiled down: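 0.15 nM His-ATG7 was reacted with 5 nM ATG3-GST, 5 nM Flag-Gabarap and 10 μM ATP in HEPES pH 7.5 containing MgCl2, GSH and TCEP for 105 min at 24° C, then stopped with EDTA/KF. Eu-anti-Flag and anti-GST-APC HTRF was read after 2 h. Results are given as single-concentration % inhibition or IC50.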
A general note: Time-resolved FRET reads energy transfer from a long-lived donor to a nearby acceptor.

Chain of recombinant human His-ATG7 enzyme (O95352 whole entry): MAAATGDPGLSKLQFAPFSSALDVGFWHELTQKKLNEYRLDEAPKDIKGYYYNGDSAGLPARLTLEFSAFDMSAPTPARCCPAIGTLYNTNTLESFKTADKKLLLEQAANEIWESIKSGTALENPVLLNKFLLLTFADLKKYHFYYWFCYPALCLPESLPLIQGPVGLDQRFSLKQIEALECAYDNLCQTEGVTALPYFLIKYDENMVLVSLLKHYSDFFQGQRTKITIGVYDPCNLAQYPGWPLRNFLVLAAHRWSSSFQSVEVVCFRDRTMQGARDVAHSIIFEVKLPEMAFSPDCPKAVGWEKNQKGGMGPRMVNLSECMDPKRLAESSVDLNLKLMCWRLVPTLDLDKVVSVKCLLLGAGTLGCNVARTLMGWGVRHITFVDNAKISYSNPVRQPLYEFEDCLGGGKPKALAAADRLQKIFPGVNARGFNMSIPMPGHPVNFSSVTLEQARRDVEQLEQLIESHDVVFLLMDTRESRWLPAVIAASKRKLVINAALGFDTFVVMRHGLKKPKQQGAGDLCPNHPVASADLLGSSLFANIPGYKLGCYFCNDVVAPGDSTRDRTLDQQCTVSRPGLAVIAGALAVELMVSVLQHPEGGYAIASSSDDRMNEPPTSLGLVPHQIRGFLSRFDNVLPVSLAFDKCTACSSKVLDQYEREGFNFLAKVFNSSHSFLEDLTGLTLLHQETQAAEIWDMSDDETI

In general, IC50 refers to the concentration that inhibits the measured activity by half. What is called inhibition is the drop in the measured response relative to a control, in per cent. Consider `Nc1ncnc2c1c(Sc1ccccn1)nn2[C@H]1C[C@H](O)[C@@H](COS(N)(=O)=O)O1` [Compound I-194, {(2R,3S,5R)-5-[4-amino-3-(pyridin-2-ylsulfanyl)-1H-pyrazolo[3,4-d]pyrimidin-1-yl]-3-hydroxytetrahydrofuran-2-yl}methyl sulfamate], for which the half-maximal inhibitory concentration (IC50) lay within 20 to 50 nM and the inhibition at 0.111 µM is 79%.

Regarding `Nc1ncnc2c1c(OC(F)F)nn2[C@H]1C[C@H](O)[C@@H](COS(N)(=O)=O)O1` [Compound I-195, {(2R,3S,5R)-5-[4-amino-3-(difluoromethoxy)-1H-pyrazolo[3,4-d]pyrimidin-1-yl]-3-hydroxytetrahydrofuran-2-yl}methyl Sulfamate], the IC50 was 50 to 100 nM and the inhibition at 0.111 µM is 53%.

Consider `Cc1ccc(Sc2nn([C@H]3C[C@H](O)[C@@H](COS(N)(=O)=O)O3)c3ncnc(N)c23)cc1C` [Compound I-196, [(2R,3S,5R)-5-{4-amino-3-[(3,4-dimethylphenyl)sulfanyl]-1H-pyrazolo[3,4-d]pyrimidin-1-yl}-3-hydroxytetrahydrofuran-2-yl]methyl sulfamate], for which the IC50 was 50 to 100 nM and the inhibition at 0.111 µM is 65%.

With `Nc1ncnc2c1c(Sc1ccc(OC(F)(F)F)cc1)nn2[C@H]1C[C@H](O)[C@@H](COS(N)(=O)=O)O1` [Compound I-197, [(2R,3S,5R)-5-(4-amino-3-{[4-(trifluoromethoxy)phenyl]sulfanyl}-1H-pyrazolo[3,4-d]pyrimidin-1-yl)-3-hydroxytetrahydrofuran-2-yl]methyl sulfamate], the IC50 was in the range of 100 to 500 nM and the inhibition at 0.111 µM worked out at 45%.

On to `Nc1ncnc2c1c(Sc1cccc(OC(F)(F)F)c1)nn2[C@H]1C[C@H](O)[C@@H](COS(N)(=O)=O)O1` [Compound I-198, [(2R,3S,5R)-5-(4-amino-3-{[3-(trifluoromethoxy)phenyl]sulfanyl}-1H-pyrazolo[3,4-d]pyrimidin-1-yl)-3-hydroxytetrahydrofuran-2-yl]methyl sulfamate], for which the IC50 was in the range of 100 to 500 nM and the inhibition at 0.111 µM stood at 42%.

Take `COc1cccc(Sc2nn([C@H]3C[C@H](O)[C@@H](COS(N)(=O)=O)O3)c3ncnc(N)c23)c1` [Compound I-199, [(2R,3S,5R)-5-{4-amino-3-[(3-methoxyphenyl)sulfanyl]-1H-pyrazolo[3,4-d]pyrimidin-1-yl}-3-hydroxytetrahydrofuran-2-yl]methyl sulfamate]: the IC50 is 20 to 50 nM and the inhibition at 0.111 µM worked out at 74%.

With `CSc1nn([C@H]2C[C@H](O)[C@@H](COS(N)(=O)=O)O2)c2ncnc(N)c12` [Compound I-200, {(2R,3S,5R)-5-[4-amino-3-(methylsulfanyl)-1H-pyrazolo[3,4-d]pyrimidin-1-yl]-3-hydroxytetrahydrofuran-2-yl}methyl Sulfamate], the IC50 fell in the range of 20 to 50 nM and the inhibition at 0.111 µM worked out at 70%.

For the compound `Nc1ncnc2c1c(Sc1ccc3c(c1)OCCO3)nn2[C@H]1C[C@H](O)[C@@H](COS(N)(=O)=O)O1` [Compound I-201, {(2R,3S,5R)-5-[4-amino-3-(2,3-dihydro-1,4-benzodioxin-6-ylsulfanyl)-1H-pyrazolo[3,4-d]pyrimidin-1-yl]-3-hydroxytetrahydrofuran-2-yl}methyl sulfamate], the concentration for half-maximal inhibition (IC50) lay within 20 to 50 nM and the inhibition at 0.111 µM is 68%.

For the compound `Nc1ncnc2c1c(SCC1CC1)nn2[C@H]1C[C@H](O)[C@@H](COS(N)(=O)=O)O1` [Compound I-202, [(2R,3S,5R)-5-{4-amino-3-[(cyclopropylmethyl)sulfanyl]-1H-pyrazolo[3,4-d]pyrimidin-1-yl}-3-hydroxytetrahydrofuran-2-yl]methyl Sulfamate], the IC50 is 50 to 100 nM and the inhibition at 0.111 µM stood at 62%.

Take `Nc1ncnc2c1c(Sc1cc3c(cc1F)CCC3)nn2[C@H]1C[C@H](O)[C@@H](COS(N)(=O)=O)O1` [Compound I-203, [(2R,3S,5R)-5-{4-amino-3-[(6-fluoro-2,3-dihydro-1H-inden-5-yl)sulfanyl]-1H-pyrazolo[3,4-d]pyrimidin-1-yl}-3-hydroxytetrahydrofuran-2-yl]methyl Sulfamate]: the 50% inhibitory concentration (IC50) fell in the range of 50 to 100 nM and the inhibition at 0.111 µM was 58%.

Regarding `Nc1ncnc2c1c(SCc1cc3ccccc3s1)nn2[C@H]1C[C@H](O)[C@@H](COS(N)(=O)=O)O1` [Compound I-204, [(2R,3S,5R)-5-{4-amino-3-[(1-benzothiophen-2-ylmethyl)sulfanyl]-1H-pyrazolo[3,4-d]pyrimidin-1-yl}-3-hydroxytetrahydrofuran-2-yl]methyl sulfamate], the IC50 lay within 100 to 500 nM and the inhibition at 0.111 µM is 50%.

As to `Cc1cccc(Sc2nn([C@H]3C[C@H](O)[C@@H](COS(N)(=O)=O)O3)c3ncnc(N)c23)c1` [Compound I-205, [(2R,3S,5R)-5-{4-amino-3-[(3-methylphenyl)sulfanyl]-1H-pyrazolo[3,4-d]pyrimidin-1-yl}-3-hydroxytetrahydrofuran-2-yl]methyl sulfamate], the IC50 is 50 to 100 nM and the inhibition at 0.111 µM turned out to be 55%.

As to `Nc1ncnc2c1c(Sc1cccc(F)c1)nn2[C@H]1C[C@H](O)[C@@H](COS(N)(=O)=O)O1` [Compound I-206, [(2R,3S,5R)-5-{4-amino-3-[(3-fluorophenyl)sulfanyl]-1H-pyrazolo[3,4-d]pyrimidin-1-yl}-3-hydroxytetrahydrofuran-2-yl]methyl sulfamate], the IC50 was in the range of 100 to 500 nM and the inhibition at 0.111 µM stood at 44%.

As for `COc1ccc(Sc2nn([C@H]3C[C@H](O)[C@@H](COS(N)(=O)=O)O3)c3ncnc(N)c23)cc1OC` [Compound I-207, [(2R,3S,5R)-5-{4-amino-3-[(3,4-dimethoxyphenyl)sulfanyl]-1H-pyrazolo[3,4-d]pyrimidin-1-yl}-3-hydroxytetrahydrofuran-2-yl]methyl sulfamate], the concentration for half-maximal inhibition (IC50) was in the range of 50 to 100 nM and the inhibition at 0.111 µM was determined as 65%.

In the case of `Cc1csc(Sc2nn([C@H]3C[C@H](O)[C@@H](COS(N)(=O)=O)O3)c3ncnc(N)c23)n1` [Compound I-208, [(2R,3S,5R)-5-{4-amino-3-[(4-methyl-1,3-thiazol-2-yl)sulfanyl]-1H-pyrazolo[3,4-d]pyrimidin-1-yl}-3-hydroxytetrahydrofuran-2-yl]methyl sulfamate], the IC50 was 100 to 500 nM and the inhibition at 0.111 µM is 44%.

As for `Nc1ncnc2c1c(C(F)(F)F)nn2[C@H]1C[C@H](O)[C@H](COS(N)(=O)=O)O1` [Compound I-209, {(2S,3S,5R)-5-[4-amino-3-(trifluoromethyl)-1H-pyrazolo[3,4-d]pyrimidin-1-yl]-3-hydroxytetrahydrofuran-2-yl}methyl Sulfamate], the IC50 is 100 to 500 nM and the inhibition at 0.111 µM amounted to 42%.

For `Nc1ncnc2c1c(Sc1ccc3ccccc3c1)nn2[C@H]1C[C@H](O)[C@H](COS(N)(=O)=O)O1` [Compound I-210, {(2S,3S,5R)-5-[4-amino-3-(2-naphthylsulfanyl)-1H-pyrazolo[3,4-d]pyrimidin-1-yl]-3-hydroxytetrahydrofuran-2-yl}methyl Sulfamate], the IC50 lay within 100 to 500 nM and the inhibition at 0.111 µM came to 35%.

Consider `CCc1nn([C@H]2C[C@H](O)[C@H](COS(N)(=O)=O)O2)c2ncnc(N)c12` [Compound I-212, [(2S,3S,5R)-5-(4-amino-3-ethyl-1H-pyrazolo[3,4-d]pyrimidin-1-yl)-3-hydroxytetrahydrofuran-2-yl]methylsulfamate], for which the inhibition at 0.111 µM came to 7%.

On to `CCSc1nn([C@H]2C[C@H](O)[C@H](COS(N)(=O)=O)O2)c2ncnc(N)c12` [Compound I-213, {(2S,3S,5R)-5-[4-amino-3-(ethylsulfanyl)-1H-pyrazolo[3,4-d]pyrimidin-1-yl]-3-hydroxytetrahydrofuran-2-yl}methyl sulfamate], for which the half-inhibitory concentration (IC50) is 100 to 500 nM and the inhibition at 0.111 µM was found to be 46%.

In the case of `Cc1ccc(Sc2nn([C@H]3C[C@H](O)[C@H](COS(N)(=O)=O)O3)c3ncnc(N)c23)cc1` [Compound I-214, [(2S,3S,5R)-5-{4-amino-3-[(4-methylphenyl)sulfanyl]-1H-pyrazolo[3,4-d]pyrimidin-1-yl}-3-hydroxytetrahydrofuran-2-yl]methyl sulfamate], the IC50 fell in the range of 100 to 500 nM and the inhibition at 0.111 µM was determined as 43%.

Take `Nc1ncnc2c1c(Sc1ccccc1F)nn2[C@H]1C[C@H](O)[C@H](COS(N)(=O)=O)O1` [Compound I-215, [(2S,3S,5R)-5-{4-amino-3-[(2-fluorophenyl)sulfanyl]-1H-pyrazolo[3,4-d]pyrimidin-1-yl}-3-hydroxytetrahydrofuran-2-yl]methyl sulfamate]: the 50% inhibitory concentration (IC50) lay in the range of 100 to 500 nM and the inhibition at 0.111 µM was 45%.

In the case of `Nc1ncnc2c1c(Sc1ccc3c(c1)CCC3)nn2[C@H]1C[C@H](O)[C@H](COS(N)(=O)=O)O1` [Compound I-216, {(2S,3S,5R)-5-[4-amino-3-(2,3-dihydro-1H-inden-5-ylsulfanyl)-1H-pyrazolo[3,4-d]pyrimidin-1-yl]-3-hydroxytetrahydrofuran-2-yl}methyl sulfamate], the concentration for half-maximal inhibition (IC50) lay within 100 to 500 nM and the inhibition at 0.111 µM amounted to 41%.

Regarding `Nc1ncnc2c1c(C(F)F)nn2[C@H]1C[C@H](O)[C@H](COS(N)(=O)=O)O1` [Compound I-217, {(2S,3S,5R)-5-[4-amino-3-(difluoromethyl)-1H-pyrazolo[3,4-d]pyrimidin-1-yl]-3-hydroxytetrahydrofuran-2-yl}methyl Sulfamate], the IC50 fell in the range of 100 to 500 nM and the inhibition at 0.111 µM amounted to 34%.

Consider `Cc1nn([C@H]2C[C@H](O)[C@H](COS(N)(=O)=O)O2)c2ncnc(N)c12` [Compound I-218, [(2S,3S,5R)-5-(4-amino-3-methyl-1H-pyrazolo[3,4-d]pyrimidin-1-yl)-3-hydroxytetrahydrofuran-2-yl]methyl Sulfamate], for which the IC50 is greater than 500 nM and the inhibition at 0.111 µM is 8%.
